Measurements: patent US20240228489A1, “POSITIVE ALLOSTERIC MODULATORS OF THE MUSCARINIC ACETYLCHOLINE RECEPTOR M1” (Vanderbilt University, priority 2021, published 2024)
pEC50: −log10 of the molar value.

What was measured:
[1] = target: T1, human mAChR M1 (Homo sapiens, UniProt P11229); test: mAChR M1 cell-based functional assay (calcium mobilization), agonist mode: compound alone, Emax relative to acetylcholine maximum; conditions: for Agonist Activity Human M1 EC50 / pEC50: human mAChR M1; for Emax: relative to the maximum for acetylcholine
T1 sequence (P11229 1-460): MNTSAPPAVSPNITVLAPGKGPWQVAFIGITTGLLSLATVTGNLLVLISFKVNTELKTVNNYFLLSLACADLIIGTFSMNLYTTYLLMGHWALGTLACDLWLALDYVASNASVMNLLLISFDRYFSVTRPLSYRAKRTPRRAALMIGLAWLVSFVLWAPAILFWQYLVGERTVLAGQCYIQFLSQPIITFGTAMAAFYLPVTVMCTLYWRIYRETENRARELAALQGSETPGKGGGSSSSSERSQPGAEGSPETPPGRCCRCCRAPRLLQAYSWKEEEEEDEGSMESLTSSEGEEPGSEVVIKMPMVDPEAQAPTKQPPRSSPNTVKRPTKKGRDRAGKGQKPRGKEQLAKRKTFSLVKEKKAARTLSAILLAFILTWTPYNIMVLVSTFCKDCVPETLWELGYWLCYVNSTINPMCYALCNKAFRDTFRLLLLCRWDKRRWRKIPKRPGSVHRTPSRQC
How it was run: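 Agonist activity is the concentration-dependent rise in intracellular calcium (Fluo-4, 1 Hz read) after compound addition, measured before any acetylcholine was added, in stable hM1 CHO-K1 cells. Curves were 11-point, 1:3 dilutions fitted by four-parameter logistic. Emax is given as a fraction of maximal acetylcholine response.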

[2] = target: T1, human mAChR M1; test: mAChR M1 cell-based functional assay (calcium mobilization), PAM mode: increase in the EC20 acetylcholine response
How it was run: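 PAM readout is the concentration-dependent rise in the EC20 acetylcholine calcium signal, fitted to a four-parameter logistic (EC50, Emax). Compounds were preincubated from 4 s before ACh at 144 s (EC20) and 230 s (EC80). hM1-expressing CHO-K1 cells loaded with Fluo-4, FDSS ratio read.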

Structure (SMILES) | Agonist Activity Human M1 EC50 [1] | Emax [1] | pEC50 [2] | Emax [2] | pEC50 [1]
[2H]C1([2H])c2ncccc2C(=O)N1Cc1ccc(-c2ccc(OC3CN(C(=O)OC(C)(C)C)C3)c3nn(C)cc23)cc1F [Compound 176, tert-butyl 3-((4-(3-fluoro-4-((5-oxo-5,7-dihydro-6H-pyrrolo[3,4-b]pyridin-6-yl-7,7-d2)methyl)phenyl)-2-methyl-2H-indazol-7-yl)oxy)azetidine-1-carboxylate] | Inactive | 2% | 5.88 | 60% | 
[2H]C1([2H])c2ncccc2C(=O)N1Cc1c(C)cc(-c2ccc(OCCOC)c3nn(C)cc23)cc1F [Compound 177, 6-(2-fluoro-4-(7-(2-methoxyethoxy)-2-methyl-2H-indazol-4-yl)-6-methylbenzyl)-6,7-dihydro-5H-pyrrolo[3,4-b]pyridin-5-one-7,7-d2] |  | 27% | 6.70 | 82% | 5.21
[2H]C1([2H])c2ncccc2C(=O)N1Cc1ccc(-c2ccc(OCC3(C#N)CC3)c3nn(C)cc23)cc1F [Compound 178, 1-(((4-(3-fluoro-4-((5-oxo-5,7-dihydro-6H-pyrrolo[3,4-b]pyridin-6-yl-7,7-d2)methyl)phenyl)-2-methyl-2H-indazol-7-yl)oxy)methyl)cyclopropane-1-carbonitrile] | Inactive | 9% | 6.56 | 79% | 
[2H]C1([2H])c2ncccc2C(=O)N1Cc1c(F)cc(-c2ccc(OCC3CN(C(=O)OC(C)(C)C)C3)c3nn(C)cc23)cc1F [Compound 179, tert-butyl 3-(((4-(3,5-difluoro-4-((5-oxo-5,7-dihydro-6H-pyrrolo[3,4-b]pyridin-6-yl-7,7-d2)methyl)phenyl)-2-methyl-2H-indazol-7-yl)oxy)methyl)azetidine-1-carboxylate] | Inactive | 1% | 5.95 | 55% | 
[2H]C1([2H])c2ncccc2C(=O)N1Cc1c(F)cc(-c2ccc(OC3CN(C(C)C)C3)c3nn(C)cc23)cc1F [Compound 180, 6-(2,6-difluoro-4-(7-((1-isopropylazetidin-3-yl)oxy)-2-methyl-2H-indazol-4-yl)benzyl)-6,7-dihydro-5H-pyrrolo[3,4-b]pyridin-5-one-7,7-d2] | Inactive | 9% | 6.53 | 85% | 
[2H]C1([2H])c2ncccc2C(=O)N1Cc1c(F)cc(-c2ccc(SC)c3nn(C)cc23)cc1F [Compound 181, 6-(2,6-difluoro-4-(2-methyl-7-(methylthio)-2H-indazol-4-yl)benzyl)-6,7-dihydro-5H-pyrrolo[3,4-b]pyridin-5-one-7,7-d2] | Inactive | 9% | 6.32 | 82% | 
[2H]C1([2H])c2ncccc2C(=O)N1Cc1c(F)cc(-c2ccc(S(C)(=N)=O)c3nn(C)cc23)cc1F (centres unmarked) [Compound 182, 6-(2,6-difluoro-4-(2-methyl-7-(S-methylsulfonimidoyl)-2H-indazol-4-yl)benzyl)-6,7-dihydro-5H-pyrrolo[3,4-b]pyridin-5-one-7,7-d2] | Inactive | 3% | 6.23 | 87% | 
[2H]C1([2H])c2ncccc2C(=O)N1Cc1c(F)cc(-c2ccc(OC3CC3)c3nn(C([2H])([2H])[2H])cc23)cc1F [Compound 183, 6-(4-(7-cyclopropoxy-2-(methyl-d3)-2H-indazol-4-yl)-2,6-difluorobenzyl)-6,7-dihydro-5H-pyrrolo[3,4-b]pyridin-5-one-7,7-d2] |  | 13% | 6.27 | 86% | ≤ 5.00
[2H]C1([2H])c2ncccc2C(=O)N1Cc1c(F)cc(-c2ccc(OC3CN(CCCC)C3)c3nn(C)cc23)cc1F [Compound 184, 6-(4-(7-((1-butylazetidin-3-yl)oxy)-2-methyl-2H-indazol-4-yl)-2,6-difluorobenzyl)-6,7-dihydro-5H-pyrrolo[3,4-b]pyridin-5-one-7,7-d2] | Inactive | 5% | 6.29 | 87% | 
[2H]C1([2H])c2ncccc2C(=O)N1Cc1c(F)cc(-c2ccc(OCSC)c3nn(C)cc23)cc1F [Compound 185, 6-(2,6-difluoro-4-(2-methyl-7-((methylthio)methoxy)-2H-indazol-4-yl)benzyl)-6,7-dihydro-5H-pyrrolo[3,4-b]pyridin-5-one-7,7-d2] | Inactive | 6% | 6.14 | 74% | 
[2H]C1([2H])c2ncccc2C(=O)N1Cc1c(F)cc(-c2ccc(OCS(C)(=O)=O)c3nn(C)cc23)cc1F [Compound 186, 6-(2,6-difluoro-4-(2-methyl-7-((methylsulfonyl)methoxy)-2H-indazol-4-yl)benzyl)-6,7-dihydro-5H-pyrrolo[3,4-b]pyridin-5-one-7,7-d2] |  | 15% | 6.41 | 72% | 5.14
[2H]C1([2H])c2ncccc2C(=O)N1Cc1c(F)cc(-c2ccc(OC3CN(S(=O)(=O)C(C)C)C3)c3nn(C)cc23)cc1F [Compound 187, 6-(2,6-difluoro-4-(7-((1-(isopropylsulfonyl)azetidin-3-yl)oxy)-2-methyl-2H-indazol-4-yl)benzyl)-6,7-dihydro-5H-pyrrolo[3,4-b]pyridin-5-one-7,7-d2] | Inactive | 1% | 6.33 | 67% | 
[2H]C1([2H])c2ncccc2C(=O)N1Cc1c(F)cc(-c2ccnc3nn(C([2H])([2H])[2H])cc23)cc1F [Compound 188, 6-(2,6-difluoro-4-(2-(methyl-d3)-2H-pyrazolo[3,4-b]pyridin-4-yl)benzyl)-6,7-dihydro-5H-pyrrolo[3,4-b]pyridin-5-one-7,7-d2] | Inactive | 9% | 5.57 | 71% | 
[2H]C1([2H])c2ncccc2C(=O)N1Cc1c(F)cc(-c2ccc(OC3CN(C4CCCCC4)C3)c3nn(C)cc23)cc1F [Compound 189, 6-(4-(7-((1-cyclohexylazetidin-3-yl)oxy)-2-methyl-2H-indazol-4-yl)-2,6-difluorobenzyl)-6,7-dihydro-5H-pyrrolo[3,4-b]pyridin-5-one-7,7-d2] | Inactive | 3% | 6.20 | 72% | 
[2H]C1([2H])c2ncccc2C(=O)N1Cc1c(F)cc(-c2cccc3nn(C([2H])([2H])[2H])cc23)cc1C1CC1 [Compound 190, 6-(2-Cyclopropyl-6-fluoro-4-(2-(methyl-d3)-2H-indazol-4-yl)benzyl)-6,7-dihydro-5H-pyrrolo[3,4-b]pyridin-5-one-7,7-d2] |  | 37% | 6.92 | 84% | 5.12
[2H]C1([2H])c2ncccc2C(=O)N1Cc1c(F)cc(-c2cccc3nn(C([2H])([2H])[2H])c(F)c23)cc1C1CC1 [Compound 191, 6-(2-Cyclopropyl-6-fluoro-4-(3-fluoro-2-(methyl-d3)-2H-indazol-4-yl)benzyl)-6,7-dihydro-5H-pyrrolo[3,4-b]pyridin-5-one-7,7-d2] | Inactive | 2% | 5.98 | 58% | 
[2H]C1([2H])c2ncccc2C(=O)N1Cc1c(F)cc(-c2cccc3nn(C)cc23)cc1C1CC1 [Compound 192, 6-(2-cyclopropyl-6-fluoro-4-(2-methyl-2H-indazol-4-yl)benzyl)-6,7-dihydro-5H-pyrrolo[3,4-b]pyridin-5-one-7,7-d2] |  | 44% | 6.86 | 84% | 5.22
[2H]C1([2H])c2ncccc2C(=O)N1Cc1c(F)cc(-c2ccc3nn(C)cc3c2)cc1C1CC1 [Compound 193, 6-(2-cyclopropyl-6-fluoro-4-(2-methyl-2H-indazol-5-yl)benzyl)-6,7-dihydro-5H-pyrrolo[3,4-b]pyridin-5-one-7,7-d2] |  | 11% | 6.58 | 88% | 5.01
[2H]C1([2H])c2ncccc2C(=O)N1Cc1c(C)cc(-c2ccc3nn(C)cc3c2)cc1F [Compound 194, 6-(2-fluoro-6-methyl-4-(2-methyl-2H-indazol-5-yl)benzyl)-6,7-dihydro-5H-pyrrolo[3,4-b]pyridin-5-one-7,7-d2] |  | 18% | 6.36 | 83% | 5.45
[2H]C1([2H])c2ncccc2C(=O)N1Cc1c(C)cc(-c2ccc(OC)c3nn(C)cc23)cc1F [Compound 195, 6-(2-fluoro-4-(7-methoxy-2-methyl-2H-indazol-4-yl)-6-methylbenzyl)-6,7-dihydro-5H-pyrrolo[3,4-b]pyridin-5-one-7,7-d2] |  | 43% | 6.70 | 79% | 5.43
